Reference: patent US20030176381A1, “Hyaluronic acid in the treatment of cancer” (priority 2002, published 2003)

How the values were obtained:
Assay type in all cases: cell-based
[1] = test system: RT-4 human bladder cancer cells; assay: MTT cell proliferation, RT-4
Description: Cell proliferation was measured using dimethylthiazoldiphenyltetrazolium (MTT) reduction (Mosman et al. J. Immunol. Methods 65:55, 1983). Unless otherwise stated, 100 Al of 5 mg of MTT (Sigma-Aldrich, St. Louis, Mo., USA) dissolved in 1 ml of PBS was added into each well. After 4 h, medium was removed from each well, 1.0 ml of acid-isopropanol (0.04 N HCI in isopropanol) was added and reduced MTT was solubilized by mixing. Absorbency of the reaction product was measured at a wavelength of 570 nm using a multiplate spectrophotometer reader (Elx800 Model, Bio-TEK Instruments Inc., Winooski, Vt., USA). […] PC-3, LNCAP and Du-145 human prostate cancer cells; MCF-7 human breast cancer cells; HT-1080 human fibrosarcoma cancer cells; B16F1 murine melanoma cells; and, UMUC-3, RT-4, HT-1376 and T-24 human bladder cancer cells were incubated with 0.8, 8.0 and 80 μg/ml of 5.0-7.5 x 10^5 Da HA (Table 2). […] MTT was used at 50 μl per well. HT-1376, RT-4 and T-24 human bladder cancer cells were incubated with 0.8 pg/ml of 5.0-7.5 x 10^5 Da HA +1.0 ug/ml of MCC (Table 5). […] MCF-7 human breast cancer cells; RT-4, T-24, HT-1376 and UMUC-3 human bladder cancer cells; and, PC-3, Du-145 and LNCaP prostate cancer cells (Table 8)

[2] = test system: PC-3 human prostate cancer cells; assay: MTT cell proliferation, PC-3
Description: (§1) Cell proliferation was measured using dimethylthiazoldiphenyltetrazolium (MTT) reduction (Mosman et al. J. Immunol. Methods 65:55, 1983). Unless otherwise stated, 100 Al of 5 mg of MTT (Sigma-Aldrich, St. Louis, Mo., USA) dissolved in 1 ml of PBS was added into each well. After 4 h, medium was removed from each well, 1.0 ml of acid-isopropanol (0.04 N HCI in isopropanol) was added and reduced MTT was solubilized by mixing. Absorbency of the reaction product was measured at a wavelength of 570 nm using a multiplate spectrophotometer reader (Elx800 Model, Bio-TEK Instruments Inc., Winooski, Vt., USA).
(§2) Unless stated otherwise 1.0 x 10^5 cells/ml were seeded in 6-well flat-bottom tissue culture plates and were maintained for 48 h at 370 C in a 5% CO2 atmosphere.
(§3) PC-3, LNCAP and Du-145 human prostate cancer cells; MCF-7 human breast cancer cells; HT-1080 human fibrosarcoma cancer cells; B16F1 murine melanoma cells; and, UMUC-3, RT-4, HT-1376 and T-24 human bladder cancer cells were incubated with 0.8, 8.0 and 80 μg/ml of 5.0-7.5 x 10^5 Da HA (Table 2).
(§4) PC-3. LNCaP and Du-145 human prostate cancer cells were incubated with 8.0 jg/ml of 5.0-7.5 x 105 Da HA or of <1.5 x 10^4 Da HA (Table 3).
(§5) Unless stated otherwise 2.0 x 10^4 cells/ml were seeded in 24-well plates and were maintained for 48 h at 370 C in a 5% CO2 atmosphere. MTT was used at 50 μl per well.
(§6) T-24 human bladder cancer cells, PC-3 and Du-145 human prostate cancer cells, and MCF-7 human breast cancer cell were incubated with saline or with 80.0 jg/ml of 5.0-7.5 x 105 Da HA +1.0 μg/ml of M-DNA (Table 4).
(§7) CD44 expression and the inhibition of proliferation by 5.0-7.5 x 10^5 Da HA were measured using Jurkat T cell leukemia cells; MCF-7 human breast cancer cells; RT-4, T-24, HT-1376 and UMUC-3 human bladder cancer cells; and, PC-3, Du-145 and LNCaP prostate cancer cells (Table 8)

[3] = test system: MCF-7 human breast cancer cells; assay: MTT cell proliferation, MCF-7; details: MCF-7 (2.5 X 10^5 cells/ml)
[4] = test system: MCF-7 human breast cancer cells; assay: MTT cell proliferation, MCF-7
Description: as §1, §2, §3, §5, §6
MTT was used at 50 µl per well.
Example 8 s HA potentiation of the anti-neoplastic effect ofchemotherapeutic drugs RT-4 human bladder cancer cells and MCF-7 human breast cancer cells were incubated as in Example 6 with 0.0, 0.008 or 0.08 pg/ml of 5.0-7.5 x 10^5 Da HA +0.1 jg/ml of CIS, +1.0 jg/ml of 5-FU or +10 jig/ml of 5-FU (Table 7).
as §7

[5] = test system: Jurkat T cell leukemia cells; assay: MTT cell proliferation, Jurkat T; details: HA 80 μg/ml
Description: as §1, §2, §7

[6] = test system: T-24 human bladder cancer cells; assay: MTT cell proliferation, T-24
Description: as §1, §2, §3, §5, §6
(§8) HT-1376, RT-4 and T-24 human bladder cancer cells were incubated with 0.8 pg/ml of 5.0-7.5 x 10^5 Da HA +1.0 ug/ml of MCC (Table 5).
as §7

[7] = test system: LNCaP human prostate cancer cells; assay: MTT cell proliferation, LNCaP; details: 48 h
Description: as §1, §2, §3, §4, §7

[8] = test system: HT-1376 human bladder cancer cells; assay: MTT cell proliferation, HT-1376
Description: as §1, §2, §3, §5, §8, §7

[9] = test system: B16F1 murine melanoma cells; assay: MTT cell proliferation, B16F1; details: 48 h
Description: as §1, §2, §3

[10] = HA 0.008 μg/ml alone (+ saline)
[11] = HA at 0.8 μg/ml alone (+ saline), 24-well, Example 6
[12] = HA 80.0 μg/ml alone (+ saline), 24-well, Example 6

Substance: Hyaluronic acid [5.0-7.5 × 10^5 Da HA]
- % INHIBITION of cell proliferation [1, 10]: 0%
- % INHIBITION of cell proliferation ([1]; HA 0.08 μg/ml alone (+ saline)): 0%
- % INHIBITION of cell proliferation ([1]; HA 0.8 μg/ml, 48 h): 12%
- % INHIBITION of cell proliferation ([1]; HA 8.0 μg/ml, 48 h): 13%
- % INHIBITION of cell proliferation ([1]; HA 80.0 μg/ml, 48 h): 5%
- % INHIBITION of cell proliferation [1, 11]: 13%
- % INHIBITION of cell proliferation ([2]; HA 0.8 μg/ml, 48 h): 15%
- % INHIBITION of cell proliferation ([2]; HA 8.0 μg/ml, 48 h, listed as 0.5-7.5 × 10^5 Da HA): 26%
- % INHIBITION of cell proliferation [2, 12]: 30%
- % INHIBITION of cell proliferation ([3]; HA 0.01 μg/ml alone): 6%
- % INHIBITION of cell proliferation ([3]; HA 0.1 μg/ml alone): 5%
- % INHIBITION of cell proliferation [4, 10]: 12%
- % INHIBITION of cell proliferation ([4]; HA 0.08 μg/ml alone (+ saline)): 12%
- % INHIBITION of cell proliferation ([4]; HA 0.8 μg/ml, 48 h): 19%
- % INHIBITION of cell proliferation ([4]; HA 8.0 μg/ml, 48 h): 24%
- % INHIBITION of cell proliferation [4, 12]: 35%
- % INHIBITION of cell proliferation ([4]; HA 80.0 μg/ml, 48 h): 35%
- % inhibition of proliferation [5]: 0%
- % INHIBITION of cell proliferation ([6]; HA 0.8 μg/ml, 48 h): 10%
- % INHIBITION of cell proliferation ([6]; HA 8.0 μg/ml, 48 h): 8%
- % INHIBITION of cell proliferation [6, 12]: 0%
- % INHIBITION of cell proliferation ([6]; HA 80.0 μg/ml, 48 h): 0%
- % INHIBITION of cell proliferation [6, 11]: 8%
- % INHIBITION of cell proliferation ([7]; HA 0.8 μg/ml): 7%
- % INHIBITION of cell proliferation ([7]; HA 8.0 μg/ml, listed as 0.5-7.5 × 10^5 Da HA): 13%
- % INHIBITION of cell proliferation ([8]; HA 0.8 μg/ml, 48 h): 0%
- % INHIBITION of cell proliferation ([8]; HA 8.0 μg/ml, 48 h): 3%
- % INHIBITION of cell proliferation ([8]; HA 80.0 μg/ml, 48 h): 1%
- % INHIBITION of cell proliferation [8, 11]: 3%
- % INHIBITION of cell proliferation ([9]; HA 0.8 μg/ml): 20%
- % INHIBITION of cell proliferation ([9]; HA 8.0 μg/ml): 20%
- % INHIBITION of cell proliferation ([9]; HA 80.0 μg/ml): 30%
